Test results: patent publication US5677336A, “Non-steroid androgen receptor antagonist compounds and methods” (Ligand Pharmaceuticals Incorporated, priority 1993, dated 1997)
Where two headings read alike, the source gives them in different places.

What was measured:
[1] = test system: progesterone receptor (PR-TI); assay: Antagonist activity on progesterone receptor, CV-1 cells cotransfected with pRShPR-B altered at Tau-1 (PR-TI); format: cell-based, human; settings: Table 2, CV-1 cells PR-TI; for Efficacy, PR-TI (% maximal response): comparable to that found with RU-486; for IC50: read-out: Potency, PR-TI (IC50)
Excerpt: (§1) In the co-transfection assay, a cloned gene for an intracellular receptor (e.g., androgen receptor) is introduced by transfection (a procedure to induce cells to take up foreign genes) into a background cell substantially devoid of endogenous intracellular receptors. This introduced gene directs the recipient cells to make the intracellular receptor protein. A second gene is also introduced (co-transfected) into the same cells in conjunction with the intracellular receptor gene. This second gene functions as a reporter for the transcription-modulating activity of the target intracellular receptor. Thus, the reporter acts as a surrogate for the products normally expressed by a gene under control of the target receptor and its natural hormone. A preferred reporter gene is one which expresses the firefly enzyme luciferase.
(§2) The co-transfection assay can detect small molecule agonists or antagonists of target intracellular receptors. Exposing the cells to an agonist ligand increases reporter activity in the transfected cells. This activity can be conveniently measured, e.g., by increasing luciferase production, which reflects ligand-dependent, intracellular receptor-mediated increases in reporter transcription. To detect antagonists, the co-transfection assay is carried out in the presence of a constant concentration of an agonist (e.g., for androgen receptor, dihydrotestosterone) known to induce a defined reporter signal. Increasing concentrations of a test antagonist will decrease the reporter signal (e.g., luciferase production). The co-transfection assay is therefore useful to detect both agonists and antagonists of specific intracellular receptors. It determines not only whether a compound interacts with a particular intracellular receptor, but whether this interaction mimics (agonizes) or blocks (antagonizes) the effects of the natural regulatory molecules on target gene expression, as well as the specificity and strength of this interaction.
(§3) Co-transfected cells are exposed to a medium to which is added the potential ligand (compound) that is being evaluated. If the candidate compound diffuses into the cell, binds to the receptor, and the resulting receptor complex functions as an agonist, it will subsequently bind to the co-transfected reporter gene and initiate transcription. Typically, the reporter gene is one that expresses luciferase, which is capable of catalyzing a light-emitting reaction with its substrate luciferin. Thus, after cell lysis and the introduction of luciferin, the amount of light produced relative to the concentration of candidate compound used in the assay provides a measure of the potency and efficacy of the compound tested. Antagonist activity is evaluated by adding the candidate ligand and a known agonist to the co-transfected cells.
The specific activity of Compounds A-J was compared relative to their antagonist activity on the human progesterone receptor (PR) utilizing CV-1 cells cotransfected with plasmid pRShPR-B, as altered at the Tau-1 location (e.g., PR-TI)[specifically, hPR-B was excised from the vector pGEM3Z (69 Cell 703 (1992)); the Tau-1 fragment of the gluccocorticoid receptor was inserted into hPR-B at the unique HincII site in the N-terminal region; a Bst EII to BST bI fragment spanning the Tau-1 insertion was then used to replace the corresponding region in pRShPR-B]. […] Potency or IC50 is as reported for AR-wt transfected CV-1 cells.

androgen receptor = target: T1, androgen receptor (Homo sapiens, UniProt P10275); assay: Co-transfection androgen antagonist assay (CV-1 cells, pRShAR, MTV-LUC reporter; AR-wt); format: cell-based; settings: for IC50: read-out: Potency (IC50, concentration required to reduce the maximal response by 50%)
T1 construct: expressed in transfected cells; host or cells: CV-1 (monkey kidney fibroblast) cells, plasmid pRShAR, with reporter plasmid MTV-LUC
T1 sequence (P10275 1-920): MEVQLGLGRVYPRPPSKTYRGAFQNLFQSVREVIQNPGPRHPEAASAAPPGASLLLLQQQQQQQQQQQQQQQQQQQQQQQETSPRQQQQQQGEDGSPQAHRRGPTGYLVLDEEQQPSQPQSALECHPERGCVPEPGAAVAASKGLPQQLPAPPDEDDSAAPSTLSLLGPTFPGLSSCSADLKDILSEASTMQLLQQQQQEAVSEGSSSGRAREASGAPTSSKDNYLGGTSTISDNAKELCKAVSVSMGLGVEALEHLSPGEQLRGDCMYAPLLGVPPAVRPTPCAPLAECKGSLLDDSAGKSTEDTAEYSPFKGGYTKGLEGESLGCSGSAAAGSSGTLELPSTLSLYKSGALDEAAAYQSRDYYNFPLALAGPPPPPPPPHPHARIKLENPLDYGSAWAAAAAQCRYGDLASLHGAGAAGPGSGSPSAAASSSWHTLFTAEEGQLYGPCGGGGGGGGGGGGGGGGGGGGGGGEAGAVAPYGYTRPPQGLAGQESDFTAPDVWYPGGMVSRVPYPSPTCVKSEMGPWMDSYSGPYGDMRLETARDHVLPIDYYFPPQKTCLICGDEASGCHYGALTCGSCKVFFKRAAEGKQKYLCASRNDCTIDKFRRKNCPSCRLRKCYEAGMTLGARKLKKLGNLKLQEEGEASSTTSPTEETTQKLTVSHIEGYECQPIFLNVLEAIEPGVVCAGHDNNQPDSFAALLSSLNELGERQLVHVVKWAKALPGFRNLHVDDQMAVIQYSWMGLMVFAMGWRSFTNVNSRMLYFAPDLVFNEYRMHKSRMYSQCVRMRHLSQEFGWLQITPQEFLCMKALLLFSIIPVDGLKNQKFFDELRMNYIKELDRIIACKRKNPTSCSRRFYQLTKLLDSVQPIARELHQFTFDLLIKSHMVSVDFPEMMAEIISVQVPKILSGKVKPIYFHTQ
Excerpt: The co-transfection assay provides a method for identifying functional ligands (either agonists which mimic, or antagonists which inhibit, the effect of hormones), and quantifying their activity for ligand-responsive receptor proteins. In this regard, the co-transfection assay mimics an in vivo system in the laboratory. Importantly, activity in the co-transfection assay correlates very well with known in vivo activity, such that the co-transfection assay functions as a quantitative predicator of a tested compounds in vivo pharmacology. See, e.g., T. Berger et al. 41 J. Steroid Biochem. Molec.
as §1, §2
as §3, with “cells. […]” for “cells.”

[2] = CV-1, Table 1, androgen antagonists, relative to 2-Hydroxy-flutamide, read-out: Efficacy (% maximal response relative to 2-Hydroxy-flutamide)
[3] = Table 2, CV-1 cells AR-wt, read-out: Efficacy, AR-wt

IC50 [1] [µM] | Emax (androgen receptor; [2]) [%] | IC50 (androgen receptor; Table 1, androgen antagonists) [µM] | Emax (androgen receptor; [3]) [%] | SMILES | Efficacy, PR-TI (% maximal response) [1] [%]
0.36 | 85 | 0.29 | 85 | O=[N+]([O-])c1ccc(C[C@@H]2CCCC[C@H]2O)cc1 (relative stereo) [I, trans-2-(4'-Nitrophenyl)methylcyclohexan-1-ol] | 99
 | 94 | 0.46 |  | COc1cc(C[C@@H]2CCCC[C@@]2(C)O)c(O)cc1Br (relative stereo) [Q, trans-1-Methyl-2-(2'-hydroxy-4'-bromo-5'-methoxyphenyl)methylcyclohexan-1-ol] | 
 | 92 | 0.5 |  | C=C1C[C@H](C)CC(C)(C)[C@@H]1Cc1cc(OC)c(Br)cc1O (relative stereo) [S, cis-1Methylidene-2-(2'-hydroxy-4'-bromo-5'-methoxyphenyl)methyl-3,3,5-trimethyl-cyclohexane] | 
0.865 | 85 | 0.18 | 85 | C=C1[C@@H](Cc2cc(OC)c(Br)cc2O)C(C)(C)CC[C@@H]1O [B, (1S,3S)-1-Hydroxy-2-methylidene-3-(2'-hydroxy-4'-bromo-5'-methoxyphenyl)methyl-4,4-dimethylcyclohexane] | 98
> 10 | 82 | 0.21 | 82 | C=C1C=CCC(C)(C)C1Cc1ccccc1O (stereo not drawn) [C, 1-Methylidene-6-(2'-hydroxyphenyl)methyl-5,5-dimethylcyclohex-2-ene] | 20
3.8 | 69 | 0.066 | 69 | C=C1C=CCC(C)(C)C1Cc1cccc([N+](=O)[O-])c1 (stereo not drawn) [Compound A, 1-Methylidene-6-(3'-nitrophenyl)methyl-5,5-dimethylcyclohex-2-ene] | 45
3.5 | 92 | 0.22 | 92 | C=C1CCCC(C)(C)C1Cc1ccccc1O (stereo not drawn) [D] | 73
0.82 | 87 | 0.24 | 87 | C=C1C=CCC(C)(C)C1Cc1cc(OC)c(Br)cc1OC(C)=O (stereo not drawn) [F] | 53
0.92 | 79 | 0.25 | 79 | O=C1CCCCC1Cc1ccc([N+](=O)[O-])cc1 (stereo not drawn) [G, 2-(4'-Nitrophenyl)methylcyclohexan-1-one] | 98
 | 91 | 0.33 |  | C=C1CCC(C)(C)C1Cc1cc(OC)c(Br)cc1O (stereo not drawn) [K, 1-Methylidene-2-(2'-hydroxy-4'-bromo-5'methoxyphenyl)methyl-3,3-dimethylcyclo-pentane] | 
 | 88 | 0.42 |  | C=C1[C@@H](Cc2cc(OC)c(Br)cc2O)C(C)(C)CC[C@@]1(C)O [P, (1R,3S)-1-Hydroxy-2-methylidene-3-(2'-hydroxy-4'-bromo-5'-methoxyphenyl)methyl-1,4,4-trimethylcyclohexane] | 
 | 70 | 0.5 |  | C=C1[C@H](O)CCC(C)(C)[C@H]1Cc1cc(OC)c(Br)cc1O [R, (1R,3R)-1-Hydroxy-2-methylidene-3-(2'-hydroxy-4'-bromo-5'-methoxyphenyl)methyl-4,4-dimethylcyclohexane] | 
 | 88 | 0.545 |  | C=C1C=CCC(C)(C)C1Cc1ccc([N+](=O)[O-])c(C)c1 (stereo not drawn) [T, 1-Methylidene-6-(3'-methyl-4'-nitrophenyl)methyl-5,5-dimethylcyclohex-2-ene] | 
 | 69 | 0.565 |  | C=C1C=C(C)CC(C)(C)C1Cc1ccc([N+](=O)[O-])c(C)c1 (stereo not drawn) [U, 1-Methylidene-6-(3'-methyl-4'-nitrophenyl)methyl-3,5,5-trimethylcyclohex-2-ene] | 
 | 85 | 0.59 |  | CC1(C)CCCC(=O)C1Cc1ccc([N+](=O)[O-])cc1 (stereo not drawn) [V, 2-(4'-Nitrophenyl)methyl-3.3-dimethylcyclohexan-1-one] | 
 | 89 | 0.61 |  | C=C1C=CCC(C)(C)C1Cc1cc(OC)c(Br)cc1O (stereo not drawn) [W, 1-Methylidene-6-(2'-hydroxy-4'-bromo-5'-methoxyphenyl)methyl-5,5-dimethylcyclo-hex-2-ene] | 
 | 67 | 0.34 |  | COc1cc(CC2CCCCC2=O)c(O)cc1Br (stereo not drawn) [Y, 2-(2'-hydroxy-4'-bromo-5 '-methoxyphenyl)methylcyclohex-1-one] | 

SMILES | IC50 [1] [µM] | Emax (androgen receptor; [2]) [%] | IC50 (androgen receptor; Table 1, androgen antagonists) [µM] | Emax (androgen receptor; [3]) [%] | Efficacy, PR-TI (% maximal response) [1] [%]
C=C1C=CC(Br)C(C)(C)[C@H]1Cc1cc(OC)c(Br)cc1OC(C)=O (stereo partly drawn) [E, (4S,6S)-1-Methylidene-4-bromo-5-(2'-acetoxy-4'-bromo-5'-methyoxyphenyl)methyl-5,5-dimethylcyclohex-2-ene] | > 10 | 60 | 0.23 | 60 | 20
COc1cc(CC2C(C)(C)CC(C)=CC23CC3)c(OC(C)=O)cc1Br (stereo not drawn) [H, 8-(2'-Acetoxy-4'-bromo-5 '-methoxyphenyl)methyl-5,7,7-trimethylspiro[2.51]oct-4-ene] | 0.16 | 89 | 0.25 | 89 | 26
C=C1C=CC[C@@H](C)[C@@H]1Cc1cc(OC)c(Br)cc1OC(C)=O [L, (5R,6S)-1-Methylidene-6-(2'-acetoxy-4'-bromo-5'-methoxyphenyl)methyl-5-methylcyclohex-2-ene] |  | 88 | 0.37 |  | 
C=C1C=C(C)C[C@@H](C)[C@@H]1Cc1cc(OC)c(Br)cc1OC(C)=O [O, (5R,6S)-1-Methylidene-6-(2'-acetoxy-4'-bromo-5 '-methoxyphenyl)methyl-3,5-dimethyl-cyclohex-2-ene] |  | 78 | 0.39 |  | 
